Measured values taken from publication PMC5959751 (Biochemical pharmacology, 2018).
Several values for one entry are separate records, joined by “and”; a condition that tells them apart may be missing. Equal entries are not always repeated. Where two headings read alike, the source gives them in different places.

How the values were obtained:
[1] = target: T1, hA3 receptor (Homo sapiens, UniProt P0DMS8); assay: Radioligand equilibrium displacement assay with [3H]PSB-11 on CHOhA3 membranes; format: binding; conditions: no GTP; for pKi / Ki: 10 °C, 240 min, [3H]PSB-11, CHO cell membranes; for pKi: ± SEM
T1 sequence (P0DMS8 1-318): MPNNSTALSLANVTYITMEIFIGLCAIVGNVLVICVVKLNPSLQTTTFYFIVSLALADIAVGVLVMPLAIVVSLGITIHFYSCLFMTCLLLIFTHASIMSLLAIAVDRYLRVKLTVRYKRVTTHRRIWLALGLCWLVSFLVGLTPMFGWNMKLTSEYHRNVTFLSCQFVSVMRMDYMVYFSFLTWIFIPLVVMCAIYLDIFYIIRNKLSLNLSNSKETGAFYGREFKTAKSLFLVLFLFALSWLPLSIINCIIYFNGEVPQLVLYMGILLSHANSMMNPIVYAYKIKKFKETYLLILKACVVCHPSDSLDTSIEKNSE

[2] = target: T1, hA3 receptor; assay: Dual-point competition association assay with [3H]PSB-11; format: binding; conditions: no GTP; t1 20 min, t2 240 min; agonist at IC50; 10 °C
[3] = target: T1, hA3 receptor; assay: Competition association assay with [3H]PSB-11; format: binding; conditions: no GTP; for koff / kon: 10 °C, ± SEM; for RT (residence time): RT = 1/(60*koff); for mean pKD (kinetic): from KD = koff/kon; for Kd: read-out: Kinetic KD, KD = koff/kon
[4] = test system: pain models; conditions: five-day period; daily injection or implanted mini-pump; rat; cited from earlier work

| pKi [1] | Ki ([1]; read-out: mean Ki) [nM] | koff [3] | kon [3] | RT (residence time) [3] [min] | mean pKD (kinetic) [3] | Kd [3] [nM] | Compound | further results |
| --- | --- | --- | --- | --- | --- | --- | --- | --- |
| – | – | – | – | – | – | – | CNC(=O)[C@H]1O[C@@H](n2cnc3c(NCc4cccc(I)c4)ncnc32)[C@H](O)[C@@H]1O [IB-MECA, 1-deoxy-1-[6-[((3-Iodophenyl)methyl)amino]-9H-purin-9-yl]-N-methyl-β-D-ribofuranuronamide, reference compound] | Hill Slope ([1]; displacement curves): -0.94 ± 0.05 ^ns |
| 7.3 ± 0.03 | 51 | – | – | – | – | – | OC[C@H]1O[C@@H](n2cnc3c(Nc4ccc(Cl)cc4)ncnc32)[C@H](O)[C@@H]1O [LUF5500] | KRI (Kinetic Rate Index) [2]: 0.98 (0.95; 1.01) |
| 7.5 ± 0.02 | 31 | (1.6 ± 0.2) × 10^-3 s^-1 | (1.7 ± 0.2) × 10^5 M^-1 s^-1 | 10 ± 1.3 | 8.0 | 9.2 ± 1.4 | OC[C@H]1O[C@@H](n2cnc3c(Nc4cccc(Cl)c4)ncnc32)[C@H](O)[C@@H]1O [LUF5501] | difference between kinetic pKD and pKi ([3]; pKD higher than pKi): 0.5 log-unit |
| 7.6 ± 0.08 | 29 | – | – | – | – | – | OC[C@H]1O[C@@H](n2cnc3c(Nc4ccc(I)cc4)ncnc32)[C@H](O)[C@@H]1O [LUF5506] | – |
| 8.5 ± 0.09 | 3.6 | (1.8 ± 0.3) × 10^-5 s^-1 | (4.0 ± 0.8) × 10^5 M^-1 s^-1 | 909 ± 165 | 10.3 | 0.046 ± 0.013 | CNC(=O)C12CC1C(n1cnc3c(NCc4cccc(Cl)c4)nc(C#Cc4ccccc4)nc31)C(O)C2O (stereo not shown) [MRS5655] | – |
| – | – | very slow | – | – | – | – | CNC(=O)[C@@]12C[C@@H]1[C@@H](n1cnc3c(NCc4cccc(Cl)c4)nc(C#Cc4ccc(-c5ccccc5)cc4)nc31)[C@H](O)[C@@H]2O [MRS5679] | Ki ([1]; mean Ki): 82 nM |
| – | – | – | – | – | – | – | CNC(=O)[C@@]12C[C@@H]1[C@@H](n1cnc3c(NCc4cccc(Cl)c4)nc(C#Cc4ccc(F)c(F)c4)nc31)[C@H](O)[C@@H]2O [MRS5698] | efficacy on prolonged exposure in in vivo pain models [4]: maintained full efficacy |
| 8.3 ± 0.08 | 5.2 | (8.5 ± 0.3) × 10^-5 s^-1 | (3.2 ± 1.2) × 10^5 M^-1 s^-1 | 196 ± 8 | 9.6 | 0.27 ± 0.1 | CNC(=O)[C@@]12C[C@@H]1[C@@H](n1cnc3c(NC)cc(C#Cc4ccc(Cl)s4)nc31)[C@H](O)[C@@H]2O [MRS7140] | – |
| 8.7 ± 0.06 | 2.2 | (6.2 ± 1.2) × 10^-5 s^-1 | (4.0 ± 0.7) × 10^5 M^-1 s^-1 | 270 ± 51 | 9.8 | 0.15 ± 0.04 | CCCNc1nc(C#Cc2ccc(Cl)s2)nc2c1ncn2[C@H]1[C@H](O)[C@H](O)[C@]2(C(=O)NC)C[C@H]12 [MRS7154] | – |
| – | 618 | – | – | – | – | – | CNC(=O)C12CC1C(n1cnc3c(N(C)C)nc(C#Cc4ccc(Cl)s4)nc31)C(O)C2O (stereo not shown) [MRS7158] | – |

| Compound | pKi [1] | Ki ([1]; read-out: mean Ki) [nM] | koff [3] | kon [3] | RT (residence time) [3] [min] | mean pKD (kinetic) [3] | Kd [3] [nM] | further results |
| --- | --- | --- | --- | --- | --- | --- | --- | --- |
| CNC(=O)[C@H]1O[C@@H](n2cnc3c(N)ncnc32)[C@H](O)[C@@H]1O [MECA, 5′-N-methylcarboxamidoadenosine, reference compound] | 7.4 ± 0.04 | 42 | – | – | – | – | – | KRI (Kinetic Rate Index) [2]: 1.24 and 1.24 ± 0.09 |
| CNC(=O)C12CC1C(n1cnc3c(NC)nc(C#Cc4ccc(-c5ccccc5)cc4)nc31)C(O)C2O (stereo not shown) [MRS5667] | 8.3 ± 0.05 | 4.6 | (1.1 ± 0.3) × 10^-5 s^-1 | (1.8 ± 0.3) × 10^5 M^-1 s^-1 | 1563 ± 464 | 10.2 | 0.058 ± 0.02 | – |
